The subject of data set [1] is Glomerella lagenarium (Colletotrichum lagenarium). The data set is described as follows: Fungicidal activity against Glomerella lagenarium (Colletotrichum lagenarium) liquid culture / cucumber / preventative (anthracnose). Particulars: Colletotrichum orbiculare, liquid culture (PDB), growth inhibition measured photometrically 3-4 days after application, compared to untreated control. The class given is cell-based. Here is the method: Mycelia fragments or conidia suspensions of a fungus prepared either freshly from liquid cultures of the fungus or from cryogenic storage, are directly mixed into nutrient broth. DMSO solutions of the test compound (max. 10 mg/ml) are diluted with 0.025% Tween20 by a factor of 50 and 10 µl of this solution is pipetted into a microtiter plate (96-well format). The nutrient broth containing the fungal spores/mycelia fragments is then added to give an end concentration of the tested compound. The test plates are incubated in the dark at 24° C. and 96% relative humidity. The inhibition of fungal growth is determined photometrically after 2 to 7 days, depending on the pathosystem, and percent antifungal activity relative to the untreated check is calculated.
Conidia of the fungus from cryogenic storage are directly mixed into nutrient broth (PDB potato dextrose broth). After placing a (DMSO) solution of test compound into a microtiter plate (96-well format), the nutrient broth containing the fungal spores is added. The test plates are incubated at 24° C. and the inhibition of growth is measured photometrically 3-4 days after application.

The test system of data set [2] is Puccinia recondita f. sp. tritici. Nature of the data set: Fungicidal activity against Puccinia recondita f. sp. tritici / wheat / leaf disc preventative (brown rust). The class given is in vivo. Particulars: foliar, wheat leaf segments, preventative (inoculated 1 day after application), compared to untreated control. The procedure: (§1) Leaf disks or leaf segments of various plant species are cut from plants grown in a greenhouse. The cut leaf disks or segments are placed in multiwell plates (24-well format) onto water agar. The leaf disks are sprayed with a test solution before (preventative) or after (curative) inoculation. Compounds to be tested are prepared as DMSO solutions (max. 10 mg/ml) which are diluted to the appropriate concentration with 0.025% Tween20 just before spraying. The inoculated leaf disks or segments are incubated under defined conditions (temperature, relative humidity, light, etc.) according to the respective test system. A single evaluation of disease level is carried out 3 to 14 days after inoculation, depending on the pathosystem. Percent disease control relative to the untreated check leaf disks or segments is then calculated.
(§2) Wheat leaf segments cv. Kanzler are placed on agar in multiwell plates (24-well format) and sprayed with the formulated test compound diluted in water. The leaf disks are inoculated with a spore suspension of the fungus 1 day after application. The inoculated leaf segments are incubated at 19° C. and 75% rh under a light regime of 12 h light/12 h darkness in a climate cabinet and the activity of a compound is assessed as percent disease control compared to untreated when an appropriate level of disease damage appears in untreated check leaf segments (7-9 days after application).

The test system is the same in data set [3]. The data set is described as follows: Fungicidal activity against Puccinia recondita f. sp. tritici / wheat / leaf disc curative (brown rust). The class given is in vivo. To be noted: foliar, 24 h, wheat leaf segments, curative (applied 1 day after inoculation), compared to untreated control. The procedure: as §1
as §2, with “format).” for “format) and sprayed with the formulated test compound diluted in water.”, “segments” for “disks”, “fungus. Plates are stored in darkness at 19° C. and 75% rh. The formulated test compound diluted in water is applied” for “fungus”, “inoculation.” for “application.”, “The” for “The inoculated”, “(6-8” for “(7-9”

Data set [4] has as its system Phakopsora pachyrhizi. The data set is described as follows: Fungicidal activity against Phakopsora pachyrhizi / soybean / leaf disc preventative (Asian soybean rust). The class given is in vivo. Particulars: foliar, soybean leaf disks, compared to untreated control. The procedure: as §1
Soybean leaf disks are placed on water agar in multiwell plates (24-well format) and sprayed with the formulated test compound diluted in water. One day after application leaf discs are inoculated by spraying a spore suspension on the lower leaf surface. After an incubation period in a climate cabinet of 24-36 hours in darkness at 20° C. and 75% rh leaf disc are kept at 20° C. with 12 h light/day and 75% rh. The activity of a compound is assessed as percent disease control compared to untreated when an appropriate level of disease damage appears in untreated check leaf disks (12-14 days after application).

With `N#Cc1cccn(Cc2ccc(-c3noc(C(F)(F)F)n3)cc2)c1=O` [Compound C-7, 2-oxo-1-[[4-[5-(trifluoromethyly)-1,2,4-oxadiazol-3-yl]phenyl]methyl]pyridine-3-carbonitrile], the melting point (commonly the temperature of the solid-liquid transition) is 178 to 180 °C. Besides, the inhibition of growth (usually the percentage by which the read-out fell short of the control) at 20 ppm in data set [1] is ≥ 80%. Moreover, in data set [2], the pest or weed control (usually the degree to which the test organism was suppressed or injured, in per cent) at 200 ppm was ≥ 80%. The pest or weed control at 200 ppm in data set [3] is ≥ 80%. Besides, in data set [4], the pest or weed control at 200 ppm was ≥ 80%.
`Cn1nc(Cl)n(-c2ccc(-c3noc(C(F)(F)F)n3)cc2)c1=O` [Compound F-1, 5-chloro-2-methyl-4-[4-[5-(trifluoromethyl)-1,2,4-oxadiazol-3-yl]phenyl]-1,2,4-triazol-3-one] returned a melting point of 161 to 167 °C. Further, the inhibition of growth at 20 ppm in data set [1] is ≥ 80%. For the same compound, the pest or weed control at 200 ppm in data set [2] is ≥ 80%.
As to `O=c1ccc(Br)nn1Cc1ccc(-c2noc(C(F)(F)F)n2)cc1` [Compound C-2, 6-bromo-2-[[4-[5-(trifluoromethyl)-1,2,4-oxadiazol-3-yl]phenyl]methyl]pyridazin-3-one], the melting point was in the range of 106.5 to 107.6 °C. Moreover, the inhibition of growth at 20 ppm in data set [1] is ≥ 80%. For the same compound, the pest or weed control at 200 ppm in data set [2] is ≥ 80%. Besides, the pest or weed control at 200 ppm in data set [3] is ≥ 80%. For the same compound, the pest or weed control at 200 ppm in data set [4] is ≥ 80%.
In turn, `O=C1OCC(c2ccc(Cl)cc2Cl)=NN1Cc1ccc(-c2noc(C(F)(F)F)n2)cc1` [Compound E-1, 5-(2,4-dichlorophenyl)-3-[[4-[5-(trifluoromethyl)-1,2,4-oxadiazol-3-yl]phenyl]methyl]-6H-1,3,4-oxadiazin-2-one] had a melting point of 139.5 to 140 °C.
With `O=c1sc(-c2ccccc2)nn1Cc1ccc(-c2noc(C(F)(F)F)n2)cc1` [Compound B-2, 5-phenyl-3-[[4-[5-(trifluoromethyl)-1,2,4-oxadiazol-3-yl]phenyl]methyl]-1,3,4-thiadiazol-2-one], the melting point lay in the range of 111.1 to 114 °C. The inhibition of growth at 20 ppm in data set [1] is ≥ 80%.
Consider `Cn1nnn(Cc2ccc(-c3noc(C(F)(F)F)n3)cc2)c1=O` [Compound B-6, 1-methyl-4-[[4-[5-(trifluoromethyl)-1,2,4-oxadiazol-3-yl]phenyl]methyl]tetrazol-5-one], for which the melting point lay within 104 to 106 °C. Moreover, in data set [1], the inhibition of growth at 20 ppm is ≥ 80%. In addition, the pest or weed control at 200 ppm in data set [2] was ≥ 80%. Moreover, the pest or weed control at 200 ppm in data set [3] is ≥ 80%. Further, in data set [4], the pest or weed control at 200 ppm is ≥ 80%.
With `Cc1ccn(C(C)c2ccc(-c3noc(C(F)(F)F)n3)cc2)c(=O)c1` (centres unmarked) [Compound C-1], the melting point fell in the range of 117 to 120 °C. Also, the inhibition of growth at 20 ppm in data set [1] was ≥ 80%. Further, in data set [2], the pest or weed control at 200 ppm was ≥ 80%. The pest or weed control at 200 ppm in data set [3] was ≥ 80%. In data set [4], the pest or weed control at 200 ppm was ≥ 80%.
The compound `Cc1cccc(=O)n1Cc1ccc(-c2noc(C(F)(F)F)n2)cc1` [Compound C-4, 6-methyl-1-[[4-[5-(trifluoromethyl)-1,2,4-oxadiazol-3-yl]phenyl]methyl]pyridin-2-one] yielded a melting point of 88 to 90 °C. The inhibition of growth at 20 ppm in data set [1] is ≥ 80%. Also, the pest or weed control at 200 ppm in data set [2] is ≥ 80%. For the same compound, the pest or weed control at 200 ppm in data set [3] was ≥ 80%. In addition, the pest or weed control at 200 ppm in data set [4] is ≥ 80%.
The compound `O=c1ccccn1Cc1ccc(-c2noc(C(F)(F)F)n2)c(F)c1F` [Compound C-12, 1-[[2,3-difluoro-4-[5-(trifluoromethyl)-1,2,4-oxadiazol-3-yl]phenyl]methyl]pyridin-2-one] yielded a melting point of 154 to 156 °C. The inhibition of growth at 20 ppm in data set [1] was ≥ 80%. In data set [2], the pest or weed control at 200 ppm was ≥ 80%. For the same compound, in data set [3], the pest or weed control at 200 ppm is ≥ 80%. For the same compound, the pest or weed control at 200 ppm in data set [4] is ≥ 80%.
Take `Cc1ccc(=O)n(Cc2ccc(-c3noc(C(F)(F)F)n3)cc2)c1` [Compound C-10, 5-methyl-1-[[4-[5-(trifluoromethyl)-1,2,4-oxadiazol-3-yl]phenyl]methyl]pyridin-2-one]: the melting point is 174 to 176 °C. Further, the inhibition of growth at 20 ppm in data set [1] was ≥ 80%. In addition, the pest or weed control at 200 ppm in data set [2] is ≥ 80%. Besides, the pest or weed control at 200 ppm in data set [3] is ≥ 80%. The pest or weed control at 200 ppm in data set [4] was ≥ 80%.
Compound `Cc1nn(Cc2ccc(-c3noc(C(F)(F)F)n3)cc2)c(=O)o1` [Compound B-3, 5-methyl-3-[[4-[5-(trifluoromethyl)-1,2,4-oxadiazol-3-yl]phenyl]methyl]-1,3,4-oxadiazol-2-one] gave a melting point of 133.8 to 136 °C. The inhibition of growth at 20 ppm in data set [1] was ≥ 80%. Further, the pest or weed control at 200 ppm in data set [2] is ≥ 80%. For the same compound, in data set [3], the pest or weed control at 200 ppm was ≥ 80%. Further, the pest or weed control at 200 ppm in data set [4] was ≥ 80%.
Consider `Cc1ccn(CCc2ccc(-c3noc(C(F)(F)F)n3)cc2)c(=O)c1` [Compound C-18, 4-methyl-1-[2-[4-[5-(trifluoromethyl)-1,2,4-oxadiazol-3-yl]phenyl]ethyl]pyridin-2-one], for which the melting point was in the range of 146 to 148 °C. The inhibition of growth at 20 ppm in data set [1] was ≥ 80%. The pest or weed control at 200 ppm in data set [2] is ≥ 80%. Moreover, the pest or weed control at 200 ppm in data set [3] was ≥ 80%.
`N#Cc1ccc(=O)n(Cc2ccc(-c3noc(C(F)(F)F)n3)cc2)c1` [Compound C-13, 6-oxo-1-[[4-[5-(trifluoromethylyl)-1,2,4-oxadiazol-3-yl]phenyl]methyl]pyridine-3-carbonitrile] returned a melting point of 174 to 176 °C. Moreover, in data set [1], the inhibition of growth at 20 ppm is ≥ 80%. Further, the pest or weed control at 200 ppm in data set [2] is ≥ 80%. Further, the pest or weed control at 200 ppm in data set [3] is ≥ 80%. The pest or weed control at 200 ppm in data set [4] was ≥ 80%.
In turn, `Cc1ccn(Cc2ccc(-c3noc(C(F)(F)F)n3)cc2)c(=O)c1` [Compound C-5, 4-methyl-1-[[4-[5-(trifluoromethyl)-1,2,4-oxadiazol-3-yl]phenyl]methyl]pyridin-2-one] returned a melting point of 156 to 158 °C. Besides, in data set [1], the inhibition of growth at 20 ppm is ≥ 80%. In addition, the pest or weed control at 200 ppm in data set [2] was ≥ 80%. In addition, the pest or weed control at 200 ppm in data set [3] is ≥ 80%. Further, the pest or weed control at 200 ppm in data set [4] is ≥ 80%.
In turn, `N#Cc1ccc(=O)n(Cc2ccc(-c3noc(C(F)(F)F)n3)c(F)c2F)c1` [Compound C-11, 1-[[2,3-difluoro-4-[5-(trifluoromethyl)-1,2,4-oxadiazol-3-yl]phenyl]methyl]-6-oxo-pyridine-3-carbonitrile] came in with a melting point of 144 to 146 °C. The inhibition of growth at 20 ppm in data set [1] was ≥ 80%. Also, the pest or weed control at 200 ppm in data set [2] was ≥ 80%. Also, the pest or weed control at 200 ppm in data set [3] was ≥ 80%. For the same compound, the pest or weed control at 200 ppm in data set [4] is ≥ 80%.
For `Cc1cccn(Cc2ccc(-c3noc(C(F)(F)F)n3)cc2)c1=O` [Compound C-8, 3-methyl-1-[[4-[5-(trifluoromethyl)-1,2,4-oxadiazol-3-yl]phenyl]methyl]pyridin-2-one], the melting point lay within 115 to 117 °C. The inhibition of growth at 20 ppm in data set [1] is ≥ 80%. The pest or weed control at 200 ppm in data set [2] was ≥ 80%. The pest or weed control at 200 ppm in data set [3] is ≥ 80%. For the same compound, the pest or weed control at 200 ppm in data set [4] is ≥ 80%.
With `CC(c1ccc(-c2noc(C(F)(F)F)n2)cc1)n1nnn(C)c1=O` (centres unmarked) [Compound B-1, 1-methyl-4-[1-[4-[5-(trifluoromethyl)-1,2,4-oxadiazol-3-yl]phenyl]ethyl]tetrazol-5-one], the inhibition of growth at 20 ppm in data set [1] was ≥ 80%. Moreover, the pest or weed control at 200 ppm in data set [2], in data set [3] and in data set [4] was ≥ 80% in each case.

Source of the values: patent US11447481B2, “Microbiocidal oxadiazole derivatives” (SYNGENTA PARTICIPATIONS AG, priority 2017, dated 2022).
